Experiments:
β-lactamase CTX-M-14 [1] = target: T1, β-lactamase CTX-M-14 (Klebsiella pneumoniae, UniProt A0A0H3H219); assay: time-resolved serial crystallography, formed in situ from Ser70-bound boric acid and glycerol (occupancy […]); IC50 is for boric acid combined with glycerol; format: biochemical
T1 construct: gene KPHS_p301310

β-lactamase CTX-M-14 [2] = target: T1, β-lactamase CTX-M-14; assay: time-resolved serial crystallography (bound to Ser70, occupancy up to […]); IC50 by photometric cefotaxime hydrolysis assay; format: biochemical

T1 sequence (A0A0H3H219 entry or part of it): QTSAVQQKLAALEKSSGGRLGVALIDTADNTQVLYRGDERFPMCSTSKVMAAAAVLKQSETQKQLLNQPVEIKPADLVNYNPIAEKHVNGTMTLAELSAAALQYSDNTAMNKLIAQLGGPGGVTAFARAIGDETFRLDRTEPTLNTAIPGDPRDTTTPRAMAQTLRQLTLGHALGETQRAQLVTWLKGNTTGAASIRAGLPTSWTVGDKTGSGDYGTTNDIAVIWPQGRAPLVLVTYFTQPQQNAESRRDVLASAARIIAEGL

Row | Compound | IC50 (β-lactamase CTX-M-14 [1]) [mM] | IC50 (β-lactamase CTX-M-14 [2]) [mM]
1 | OCC1COB(O)O1 (racemic) [GBE, glycerol boric acid diester] | 3.1 ± 0.4 | 
2 | OB(O)O [BAB, boric acid] |  | 2.9 ± 0.4
